Test in all cases: Substrate kinetics, coupled assay
What all share (format): biochemical

The target of assay [1] is T1, PfPNP Val66Ser (Plasmodium falciparum, UniProt Q8I3X4, V66S).
T1 construct: made in house; host or cells: Escherichia coli Top 10
T1 sequence (Q8I3X4 1-245 V66S): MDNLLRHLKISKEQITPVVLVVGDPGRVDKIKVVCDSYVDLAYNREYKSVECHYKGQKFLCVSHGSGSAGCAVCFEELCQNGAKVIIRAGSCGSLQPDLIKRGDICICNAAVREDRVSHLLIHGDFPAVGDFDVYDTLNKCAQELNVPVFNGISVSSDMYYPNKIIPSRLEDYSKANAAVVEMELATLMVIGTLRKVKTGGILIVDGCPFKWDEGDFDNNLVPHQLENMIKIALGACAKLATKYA
Conditions: for Km / kcat: substrate = label. As to the method:
(§1) Kinetic assays were completed in 50 mM KH2PO4 at pH 7.4 measuring phosphorylysis of inosine or MTI by PNP in a coupled reaction with 60 milliunits/ml xanthine oxidase to convert hypoxanthine to uric acid. Formation of uric acid was measured at 293 nm wavelength (E293 = 12.9 mM^−1 cm^−1), [20]. In cases where activity for MTI was low, increased protein concentration (10 µg/ml) was used to check enzyme function. Assays were performed with excess substrate in the presence of inhibitors. Inhibition studies measured both initial (Ki) and slow onset inhibition (Ki*) for inhibitors. The initial onset inhibition was analyzed by using the following equation: ν ο = (k cat×S)/(K m(1+I/Ki)+S), ν ο is the steady state rate, k cat catalytic rate, S is substrate concentration, Km is Michealis constant for inosine, I is inhibitor concentration, and Ki is the equilibrium dissociation constant.

The target in assay [2] is T2, PfPNP Val73Ala (Plasmodium falciparum, UniProt Q8I3X4, V73A).
T2 construct: made in house; host or cells: Escherichia coli Top 10
T2 sequence (Q8I3X4 1-245 V73A): T1 sequence (Q8I3X4 1-245 V66S) with S66V, V73A
Conditions: for Km / kcat: substrate = label. As to the method: as §1

The target in assay [3] is T3, PfPNP His7Phe (Plasmodium falciparum, UniProt Q8I3X4, H7F).
T3 construct: made in house; host or cells: Escherichia coli Top 10
T3 sequence (Q8I3X4 1-245 H7F): T1 sequence (Q8I3X4 1-245 V66S) with H7F, S66V
As to conditions: for Km / kcat: substrate = label. As to the method: as §1

The target in assay [4] is T4, PfPNP V66I/V73I/Y160F (Plasmodium falciparum, UniProt Q8I3X4, V66I/V73I/Y160F).
T4 construct: made in house; host or cells: Escherichia coli Top 10
T4 sequence (Q8I3X4 1-245 V66I/V73I/Y160F): T1 sequence (Q8I3X4 1-245 V66S) with S66I, V73I, Y160F
As to conditions: for Ino/MTI kcat/Km Ratio / Km / kcat: V66I/V73I/Y160F PfPNP; for Km / kcat: substrate = label. As for the experimental part: as §1

Assay [5] deals with T5, PfPNP His7Ser (Plasmodium falciparum, UniProt Q8I3X4, H7S).
T5 construct: made in house; host or cells: Escherichia coli Top 10
T5 sequence (Q8I3X4 1-245 H7S): T1 sequence (Q8I3X4 1-245 V66S) with H7S, S66V
As to conditions: for Km / kcat: substrate = label. As for the experimental part:
as §1

Assay [6] addresses T6, PfPNP His7Ala (Plasmodium falciparum, UniProt Q8I3X4, H7A).
T6 construct: made in house; host or cells: Escherichia coli Top 10
T6 sequence (Q8I3X4 1-245 H7A): T1 sequence (Q8I3X4 1-245 V66S) with H7A, S66V
Conditions: for Km / kcat: substrate = label. As for the experimental part:
as §1

Assay [7] has as its target T7, PfPNP Tyr47Ala (Plasmodium falciparum, UniProt Q8I3X4, Y47A).
T7 construct: made in house; host or cells: Escherichia coli Top 10
T7 sequence (Q8I3X4 1-245 Y47A): T1 sequence (Q8I3X4 1-245 V66S) with Y47A, S66V
Conditions: for Km / kcat: substrate = label. As for the experimental part:
as §1

[8] abbreviates: V66I:V73I:Y160F PfPNP versus wild type.

Here are results for two molecules from article PMC3885546, “Structural Determinants of the 5′-Methylthioinosine Specificity of Plasmodium Purine Nucleoside Phosphorylase” (PLoS ONE, 2014).

Changes are numbered by the printed parent chain.

What is called Km is the substrate concentration at which the rate is half of its maximum. For orientation: kcat means the number of substrate molecules converted per active site and unit of time at saturation.

Regarding 5′-methylthioinosine, the Km in assay [1] was 0.7 ± 0.7 µM; in assay [2], 20 ± 10 µM; in assay [3], 9.6 ± 8 µM; in assay [4], 18 ± 6 µM; in assay [5], 3.2 ± 2.7 µM; in assay [6], 2.6 ± 2 µM. Besides, the Km in assay [7] was 960 µM. Moreover, the kcat was 0.21 ± 0.05 s⁻¹ in assay [1]; 1.9 ± 0.3 s⁻¹ in assay [2]; 0.21 ± 0.03 s⁻¹ in assay [3]; 0.01 ± 0.00 s⁻¹ in assay [4]; 0.88 ± 0.30 s⁻¹ in assay [5]; 0.29 ± 0.21 s⁻¹ in assay [6]. Further, the turnover number (kcat) in assay [7] turned out to be 0.02 ± 0 s⁻¹. Besides, the “Ino/MTI kcat/Km Ratio” value in assay [4] came to 160. For the same molecule, in assay [4] (setting [8]), the decrease in kcat is given as 83 fold. The “increase in Km” value in assay [4] (setting [8]) is recorded as 2 fold.
In the case of `OC[C@H]1O[C@@H](n2cnc3c(O)ncnc32)[C@H](O)[C@@H]1O` [Inosine, inosine], the “Ino/MTI kcat/Km Ratio” value in assay [1] was found to be 0.06; in assay [2] it was 1.6; in assay [3], 0.3; in assay [4], 160; in assay [5] it was 0.1; in assay [6], 2.2. Moreover, the “Ino/MTI kcat/Km Ratio” value in assay [7] amounted to 9.3. Further, the Km in assay [1] came out at 78 ± 4 µM; in assay [2], 7 ± 4 µM; in assay [3] it was 353 ± 22 µM; in assay [4] it was 4 ± 1.8 µM; in assay [5] it was 14 ± 3 µM; in assay [6], 45 ± 7 µM. Moreover, the Km in assay [7] stood at 200 µM. In addition, the kcat in assay [1] was 1.4 ± 1.7 s⁻¹; in assay [2] it was 1.1 ± 0.1 s⁻¹; in assay [3], 2.2 ± 0.7 s⁻¹; in assay [4], 0.36 ± 0.23 s⁻¹; in assay [5] it was 0.5 ± 0.3 s⁻¹; in assay [6] it was 1.1 ± 0.5 s⁻¹. For the same molecule, the turnover number (kcat) in assay [7] amounted to 0.04 ± 0.00 s⁻¹.
